This note sets out measurements from ChEMBL document CHEMBL1140922, “Detection of metabolite changes in C6 glioma cells cultured with antimitotic oleyl glycoside by 1H MAS NMR” (2009).

The source made the active and inactive calls. The rule behind the calls is not given here.

Assay [1] concerns C6. Nature of the assay: Effect on metabolic changes in rat C6 cells assessed as ratio of CoA to creatine at 10 uM after 24 hrs by NMR analysis. Format: functional.
In assay [2] the test system is C6. Nature of the assay: Induction of apoptosis in rat C6 cells assessed inhibition of cell division. Format: functional, cell-based.
Assay [3] concerns C6. Nature of the assay: Induction of apoptosis in rat C6 cells assessed as DNA fragmentation at 80 uM after 19 hrs by electrophoresis. Format: functional, cell-based.
For assay [4], the system named is C6. Description: Effect on metabolic changes in rat C6 cells assessed as increase in choline signal at 10 uM after 48 hrs by NMR analysis. The assay is classed as functional.
Assay [5] concerns C6. Nature of the assay: Cytotoxicity against rat C6 cells assessed as necrotic cells at 80 uM after 19 hrs. The assay is classed as functional, cell-based.
In assay [6] the test system is C6. Nature of the assay: Induction of apoptosis in rat C6 cells assessed as DNA fragmentation at 40 uM after 19 hrs by electrophoresis. The assay is classed as functional, cell-based.
The subject of assay [7] is C6. Description: Induction of apoptosis in rat C6 cells assessed cell death at > 40 uM. Format: functional, cell-based.

As to `CCCCCCCC/C=C\CCCCCCCCO[C@H]1O[C@H](CO)[C@@H](O)[C@H](O)[C@H]1NC(C)=O`, the Ratio in the assay with C6 [1] turned out to be 0.32. Besides, the result in the assay with C6 [2], with C6 [3], with C6 [6] and with C6 [7] was Active. For the same compound, the Activity with C6 [4] came to 2.47. Besides, in the assay with C6 [5], the result was inactive.
